Among the data in PubChem BioAssay (NCI) are GI50 and TGI values, retold here.

Among the test systems are COLO 205 colon; MCF7 breast; MALME-3M melanoma; A498 renal; OVCAR-4 ovarian; SK-OV-3 ovarian; SNB-75 CNS; SNB-19 CNS; KM12 colon; RPMI-8226 leukemia.
Holding throughout (assay): DTP human tumour cell line panel, 48 h

“And” between values parts separate entries of the source, which are not always exact repeats. Identical values can stand only once.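 Protocol summary: plate cells (96-well), add compound at 5 concentrations, incubate 48 h, interpolate endpoints linearly. At the GI50, growth is halved. The concentration for full growth arrest is given as TGI.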

As usually defined, the GI50 is the concentration giving 50% growth inhibition. A word on the TGI: it is the concentration at which net growth stops. Lower therefore signals greater sensitivity of the cells. Regarding `N#Cc1ccc(NC(=O)Nc2ccc(Oc3ccc(NC(=O)Nc4ccc(C#N)cc4)cc3)cc2)cc1`, the GI50 was 24.6 µM in the experiment on COLO 205 colon; 3.71 µM with MCF7 breast; 3.28 µM with MALME-3M melanoma; 15.9 µM with A498 renal; 5.65 µM in the experiment with OVCAR-4 ovarian; 11.1 µM in the experiment with SK-OV-3 ovarian. The GI50 is 4.14 µM with SNB-75 CNS, 20 µM with SNB-19 CNS, 11.2 µM in the experiment with KM12 colon and 0.994 µM with RPMI-8226 leukemia. In addition, the TGI was more than 100 µM with COLO 205 colon; more than 100 µM in the experiment with MCF7 breast; 77.8 µM in the experiment with MALME-3M melanoma; 61.2 µM in the experiment with A498 renal; more than 100 µM with OVCAR-4 ovarian; 46.3 µM with SK-OV-3 ovarian. Further, the TGI was 24.4 µM with SNB-75 CNS, 88.7 µM with SNB-19 CNS, more than 100 µM in the experiment on KM12 colon and 39.6 µM in the experiment on RPMI-8226 leukemia.

Take `COc1ccc(NC2=CC(=O)C(=O)c3ccccc32)nn1`: the TGI was 3.21 µM in the experiment on COLO 205 colon; 2.14 µM with MCF7 breast; 1.96 µM with MALME-3M melanoma; 3.29 µM with A498 renal; 2.79 µM in the experiment with OVCAR-4 ovarian; 9.41 µM in the experiment with SK-OV-3 ovarian. Further, the TGI in the experiment with SNB-19 CNS was 18.1 µM; in the experiment with KM12 colon, 1.62 µM; in the experiment with RPMI-8226 leukemia it was 5.34 µM.

Take `CCN(CC)c1ccc(/C=C/c2ccc3cc(C)ccc3[n+]2CC)cc1`: the GI50 in the experiment on COLO 205 colon was 0.124 µM; in the experiment on MCF7 breast, 0.0773 µM; with MALME-3M melanoma, 0.149 µM; in the experiment with A498 renal, 0.149 µM; in the experiment on OVCAR-4 ovarian, 0.0468 µM; in the experiment on SK-OV-3 ovarian, 0.141 µM. The GI50 in the experiment on SNB-75 CNS was 0.161 µM; in the experiment with SNB-19 CNS, 0.0621 µM; with KM12 colon, 0.103 µM; with RPMI-8226 leukemia it was 0.029 µM. In addition, the TGI with COLO 205 colon came to 0.516 µM; with MCF7 breast, 3.26 µM; in the experiment on MALME-3M melanoma it was 1.33 µM; with A498 renal, 1.78 µM; with OVCAR-4 ovarian, 12.1 µM; in the experiment with SK-OV-3 ovarian it was 0.732 µM. Further, the TGI turned out to be 6.24 µM with SNB-75 CNS, 13.4 µM in the experiment on SNB-19 CNS, 1.89 µM in the experiment on KM12 colon and 3.66 µM in the experiment with RPMI-8226 leukemia.

Regarding `C[C@]12CC[C@H]3[C@@H](CC=C4C[C@@H](O)CC[C@@]43C)[C@@H]1CC[C@@H]2N(CCO)CCO`, the TGI was more than 100 µM in the experiment on COLO 205 colon; more than 100 µM in the experiment on MCF7 breast; more than 100 µM in the experiment with MALME-3M melanoma; 73 µM with A498 renal; more than 100 µM in the experiment on OVCAR-4 ovarian; more than 100 µM in the experiment with SK-OV-3 ovarian. Besides, the TGI in the experiment on SNB-75 CNS, in the experiment on SNB-19 CNS, in the experiment on KM12 colon and in the experiment on RPMI-8226 leukemia was more than 100 µM in each case.

`COc1ccc(/C(COc2c(-c3ccccc3)oc3ccccc3c2=O)=N\O)cc1`: the GI50 in the experiment with COLO 205 colon is 12 µM; in the experiment on MCF7 breast, 10.8 µM; in the experiment with OVCAR-4 ovarian, 37.1 µM; with SK-OV-3 ovarian, 16.9 µM; with SNB-75 CNS, 22.2 µM; in the experiment on SNB-19 CNS, 17.5 µM. The results for the GI50 in the experiment on KM12 colon and in the experiment with RPMI-8226 leukemia were 9.46 µM and 21.5 µM, respectively. The TGI is 30.9 µM with COLO 205 colon; 29.5 µM in the experiment on MCF7 breast; more than 50 µM with OVCAR-4 ovarian; more than 50 µM with SK-OV-3 ovarian; more than 50 µM with SNB-75 CNS; more than 50 µM with SNB-19 CNS. Besides, the TGI in the experiment with KM12 colon is 23.4 µM; in the experiment on RPMI-8226 leukemia, more than 50 µM.

As to `CCN(CC)CCOc1ccc(/C(=C(\Cl)c2ccccc2)c2ccccc2)cc1`, the GI50 in the experiment on COLO 205 colon is 0.859 µM and 1.36 µM; in the experiment with MCF7 breast it was 0.307 µM and 0.577 µM; in the experiment with MALME-3M melanoma, 1.21 µM and 1.43 µM; with A498 renal it was 6.96 µM and 2.32 µM; in the experiment with OVCAR-4 ovarian it was 5.31 µM and 3.14 µM; in the experiment on SK-OV-3 ovarian it was 5.38 µM and 4.67 µM. Further, the GI50 with SNB-75 CNS was 2.19 µM and 1.39 µM; with SNB-19 CNS, 5.41 µM and 2.25 µM; in the experiment on KM12 colon, 2.1 µM and 1.87 µM; in the experiment on RPMI-8226 leukemia, 2.17 µM. The concentration for total growth inhibition (TGI) was 1.72 µM and 2.83 µM with COLO 205 colon; 7.55 µM and 2.99 µM with MCF7 breast; 3.88 µM and 2.99 µM with MALME-3M melanoma; 13.7 µM and 10.1 µM in the experiment on A498 renal; 11.3 µM and 11.6 µM in the experiment on OVCAR-4 ovarian; 11.5 µM and 17.2 µM in the experiment with SK-OV-3 ovarian. Moreover, the TGI with SNB-75 CNS is 8.5 µM and 4.95 µM; with SNB-19 CNS, 11.9 µM and 5.41 µM; in the experiment with KM12 colon, 7.2 µM and 4.08 µM; with RPMI-8226 leukemia, 6.98 µM.

For `C=CC(=O)N1CC2(CCN(c3nc(OC4CCN(CCCOC)CC4)nc4c(OCC(F)(F)F)c(-c5c(C)ccc6[nH]ncc56)c(C5CC5)cc34)CC2)C1`, the GI50 in the experiment with COLO 205 colon was 1.97 µM; in the experiment with MCF7 breast, 1.67 µM; with MALME-3M melanoma, 1.66 µM; with A498 renal it was 15.4 µM; in the experiment with OVCAR-4 ovarian, 4.54 µM; in the experiment with SK-OV-3 ovarian, 8.57 µM. In addition, the GI50 is 3.83 µM with SNB-75 CNS, 6.89 µM in the experiment on SNB-19 CNS, 1.96 µM in the experiment on KM12 colon and 2.14 µM in the experiment with RPMI-8226 leukemia. For the same compound, the TGI in the experiment with COLO 205 colon amounted to 3.73 µM; in the experiment on MCF7 breast, 3.37 µM; in the experiment with MALME-3M melanoma it was 3.14 µM; with A498 renal, 29.5 µM; with OVCAR-4 ovarian it was 18.5 µM; with SK-OV-3 ovarian it was 23.8 µM. Moreover, the TGI in the experiment with SNB-75 CNS was 16.8 µM; in the experiment on SNB-19 CNS, 20.1 µM; in the experiment on KM12 colon, 4.04 µM; in the experiment on RPMI-8226 leukemia, 5.81 µM.

Regarding `OCc1c[nH]c2ccccc12`, the GI50 is 16 µM in the experiment with COLO 205 colon; 29.4 µM with MCF7 breast; 31.3 µM with A498 renal; 33 µM in the experiment on OVCAR-4 ovarian; 26.3 µM in the experiment with SK-OV-3 ovarian; 24.2 µM in the experiment on SNB-75 CNS. Moreover, the results for the GI50 in the experiment with SNB-19 CNS, in the experiment on KM12 colon and in the experiment with RPMI-8226 leukemia were 33 µM, 16 µM and 20.6 µM, respectively. For the same compound, the TGI is 35.1 µM with COLO 205 colon; 95.4 µM with MCF7 breast; more than 100 µM in the experiment on A498 renal; more than 100 µM with OVCAR-4 ovarian; 98.9 µM in the experiment on SK-OV-3 ovarian; more than 100 µM with SNB-75 CNS. The TGI is more than 100 µM in the experiment with SNB-19 CNS, 37.2 µM in the experiment with KM12 colon and 64.2 µM in the experiment on RPMI-8226 leukemia.
